Series [1] has as its system subgenomic HCV replicon of genotype 1b. The series can be described thus: microbe, parasite or virus in culture. Format: cell-based, hepatitis C virus. The conditions noted are these: SgPC2 cells, Northern blot. The protocol: Huh7 human hepatoma cells were cultured in Dulbecco's modified Eagle medium (DMEM; Invitrogen, Carlsbad, Calif., USA) supplemented with 10% fetal bovine serum (FBS; Invitrogen), 100 units/ml of penicillin, and 100 μg/ml of streptomycin in a 5% CO2 incubator. SgPC2 cells are G418-selected, pooled Huh7 cell clones that support the continuous replication of a subgenomic HCV replicon of genotype 1b and [29] (GenBank Accession No. AJ242652) that carries a S11791 adaptive mutation within the NS5A region. SgPC2 cells were maintained in the above medium supplemented with 0.5 mg/ml G418 (Invitrogen). G418 was removed at least 1 day before cell treatments.

Series [2] concerns intracellular calcium concentration ([Ca^2+]i). In words: [Ca^2+]i measurement with Indo-1 AM in SgPC2 cells. The class given is cell-based, human. The settings on record: BSO-treated cells, after 24 h. The method, then:
Briefly, on the day of the experiment, cells were washed in Krebs-Ringer phosphate buffer (KRPH; pH 7.4, containing 1.0 mM MgSO4, 1.3 mM CaCl2, 10 mM Hepes, 5 mM glucose, 125 mM NaCl, 5 mM KCl, and 10 mM sodium phosphate) and subsequently loaded with 10-20 μM Indo-1 AM (70 μl/coverslip; Molecular Probes, Inc., Eugene, Oreg., USA) containing 10 μM probenecid (Molecular Probes) for 30 min at 37° C. The attached cells were washed and bathed in KRPH/probenecid at 4° C. or room temperature until further analysis. Then, coverslips were individually submerged into KRPH and preequilibrated inside the […] fluorimeter (Hitachi) in darkness for 3 min, and [Ca^2+]i was monitored continuously at 37° C., with excitation at […] and emission at 400 and 450 nm. H2O2 and other agents were injected at different time points, as indicated under Results. [Ca^2+]i was calculated as described. Rmax was determined by adding 8-16 μM digitonin and Rmin with 10 mM ethylene glycol-bis(β-aminoethyl)-N,N,N'-tetraacetic acid (EGTA). […] The baseline, which represented unstimulated cells scanned over time, was plotted along with other measurements or subtracted from the other plots. Cells were serum-depleted, 1 day before the experiment, by incubating them overnight in DMEM plus 0.5% FBS. […] Then, CaCl2 was added before determining the Rmax for each run.

The test system of series [3] is GSH. The series can be described thus: Intracellular glutathione (GSH) in SgPC2 cells, GSH recycling assay. The class given is cell-based, human. The settings on record: 20-40 μM BSO, 24 h.
Protocol: Intracellular GSH concentration was determined using a GSH recycling assay [35] and expressed as nmol/mg protein. ATP level was measured using the Somatic Cell ATP assay kit from Sigma-Aldrich, as previously described [32]. Protein level was determined with a bicinchoninic acid kit (Pierce Biotechnology, Inc., Rockford, Ill., USA).
The subject of series [4] is GSH. In words: Intracellular GSH content in Huh7 cells (unpublished observation). The conditions noted are these: twenty to 100 μM BSO. Format: cell-based, human.
Series [5] concerns JFH1 HCV (genotype 2a). The class given is cell-based, hepatitis C virus. The conditions noted are these: JFH1-transfected cells, 20 uM. The protocol:
(§1) For viral RNA transfection, JFH1, JFH1/GND, and pSGR-JFH1-Luc were linearized with XbaI and used to synthesize the corresponding positive-sense stranded HCV RNA, as previously described (68). Then, 5×10^6 Huh7 cells were rinsed with Opti-Mem (Invitrogen), mixed briefly with 10-20 μg of the in vitro transcribed RNA in 0.4 ml of Opti-Mem, and then electroporated at 260 volts and 950 μF. […] Medium was changed daily. For infection with HCV, medium collected from JFH1 RNA-transfected cells were cleared of cell debris, as described, and added to naïve Huh7 cells. Typically, 1:2 or 3:2 ratio of the virus-containing medium and fresh cell culture medium were used.
JFH1/GND was used as the negative control. When L-buthionine S,R-sulfoximine (BSO) was used, the cells were pretreated with BSO for 16-24 hrs prior to the initiation of treatments.
Intracellular JFH1 HCV RNA content was also analyzed by qRT-PCR (Taqman), using ABI7300 real time PCR system and one step RT-PCR kit from Applied Biosystems. The forward primer was 5′-[…]-3′ (nt. 146 to 164) and the reverse primer, 5′-[…]-3′ (nt. 277 to 295). The probe was 5′[…]3′ (nt. 168 to 188) and was fluorogenically labeled with FAM (5′) and TAMRA (3′) (Biosearch Technologies, Novato, Calif.). Briefly, the reactions were carried out at 48° C. for 30 min for reverse transcription, followed by denaturation at 95° C. for 10 min, and then 50 cycles of 15 sec denaturation at 95° C. plus 60 sec of annealing and extension at 60° C. All samples were analyzed in duplicates or triplicates. In vitro RNA transcripts were used to generate standard curve to determine RNA copy numbers. The level of 18S rRNA was also analyzed, using manufacturer-optimized protocol, as the control.
To analyze the amount of the extracellular HCV RNA, medium from the cells were cleared by low-speed centrifugation and then, treated with RNaseA at room temperature. Then, the RNA samples were extracted, using Trizol LS Reagent (Invitrogen), and analyzed for HCV RNA content by qRT-PCR.

Series [6] concerns SgJFH1-Luc RNA (subgenomic JFH1 replicon). The series can be described thus: SgJFH1-Luc RNA replication in Huh7 cells, luciferase assay. The settings on record: Huh7 cells transfected with SgJFH1-Luc RNA. The class given is cell-based, hepatitis C virus. The method, then: as §1
SgJFH1-Luc RNA replication was also monitored by firefly luciferase reporter assay, using a kit from Promega.
To investigate whether the HCV RNA replication is modulated by ROS, Huh7 cells were transfected with the SgJFH1-Luc RNA and treated with GO plus glucose.
After 24 and 48 hours, respectively, the cells were collected in PBS, centrifuged, lysed in the reporter lysis buffer (Promega), and analyzed for luciferase activity.

Series [7] deals with JFH1-transfected cells. In words: ATP concentration as cytotoxicity measure in JFH1-transfected cells. The method, then:
Determination of ATP concentrations—ATP level was measured, using Somatic Cell ATP Assay kit from Sigma-Aldrich, as previously described (68). Protein level was determined with bicinchoninic acid kit (Pierce Biotechnology, Inc., Rockford, Ill.).
ATP concentration was measured to determine if the treatments were cytotoxic to the cells.

As to `CCCCS(=N)(=O)CCC(N)C(=O)O` (stereo not shown) [BSO, 1-buthionine S,R-sulfoximine, reference compound], the “effect on HCV RNA level / replication” value in series [1] is given as “sufficient to decrease the HCV RNA level”. Besides, the intracellular calcium concentration in series [2] is 60.6 ± 4.3 nM. Also, in series [3], the “decrease of total intracellular GSH concentration” value was “about 75%”. In addition, the “decrease of intracellular GSH content” value in series [4] is recorded as “about 60%”. Moreover, the “intracellular HCV RNA level” value in series [5] is given as “significant suppression”. Moreover, the “HCV RNA level by luciferase activity” value in series [6] was “further suppressed HCV RNA”. In addition, the “cytotoxicity (ATP concentration, cell survivability)” value in series [7] is on record as “did not cause any loss in cell survivability”.

The record behind these values is US20090123447A1, “COMPOSITIONS AND METHODS TO INHIBIT RNA VIRAL REPRODUCTION” (priority 2007, published 2009).
